Data: ChEMBL document CHEMBL1136334, “Synthesis and biological evaluation of 4-[(3-methyl-3H-imidazol-4-yl)-(2-phenylethynyl-benzyloxy)-methyl]-benzonitrile as novel farnesyltransferase inhibitor” (Bioorg Med Chem Lett, 2003)

Key:
[1] = target: Protein farnesyltransferase (Homo sapiens, UniProt P49354+P49356); assay: In vitro inhibition of the human FTase-catalyzed incorporation of [3H]FPP into recombinant Ras CVIM.; assay type: protein-complex assay
[2] = target: Geranylgeranyl transferase type I (Homo sapiens, UniProt P49354+P53609); assay: In vitro inhibition of the human Geranylgeranyl transferase-catalyzed incorporation of [3H]GGPP into biotinylated peptide corresponding to the C-terminal of human K-Ras.; assay type: protein-complex assay
[3] = target: Protein farnesyl/geranylgeranyl transferase (Homo sapiens) (UniProt P49354+P49356+P53609); assay: Selectivity ratio of IC50 Geranylgeranyl transferase to that of IC50 Farnesyltransferase; assay type: protein-complex assay
NIH3T3 = assay: In vitro reduction of farnesylation in NIH-3T3H-ras cell line.; assay type: functional, cell-based; conditions: Mus musculus

Row | IC50 [1] [µM] | IC50 [2] [µM] | Selectivity [3] | SMILES | EC50 (NIH3T3) [µM]
1 | 0.0013 | 0.22 | 169 | CCC/C=C/C=C/c1cc(C#N)ccc1COC(c1ccc(C#N)cc1)c1cncn1C (centres undefined) | 0.0167
2 | 0.0029 | 16 | 5520 | Cn1cncc1C(OCc1ccc(C#N)cc1C#Cc1ccccn1)c1ccc(C#N)cc1 (centres undefined) | > 0.0001
3 | 0.00061 | 0.11 | 180 | Cn1cncc1C(OCc1ccc(C#N)cc1/C=C/c1ccc([N+](=O)[O-])cc1)c1ccc(C#N)cc1 (centres undefined) | 0.00224
4 | 0.00063 | 0.124 | 196 | Cn1cncc1C(OCc1ccc(C#N)cc1C#Cc1ccc(C#N)cc1)c1ccc(C#N)cc1 (centres undefined) | 0.0116
5 | 0.001 | 1.3 | 1300 | Cn1cncc1C(OCc1ccc(C#N)cc1C#Cc1cccc(O)c1)c1ccc(C#N)cc1 (centres undefined) | > 0.0001
6 | 0.00087 | 0.845 | 971 | Cn1cncc1C(OCc1ccc(C#N)cc1C#CC1(O)CCCCC1)c1ccc(C#N)cc1 (centres undefined) | 0.00193
7 | 0.00062 | 0.49 | 790 | Cn1cncc1C(OCc1ccc(C#N)cc1C#CC(C)(C)C)c1ccc(C#N)cc1 (centres undefined) | 0.0769
8 | 0.00055 | 0.15 | 273 | Cn1cncc1C(OCc1ccc(C#N)cc1C#Cc1ccc([N+](=O)[O-])cc1)c1ccc(C#N)cc1 (centres undefined) | 0.036
9 | 0.0014 | 0.54 | 386 | Cn1cncc1C(OCc1ccc(C#N)cc1C#CCCc1ccccc1)c1ccc(C#N)cc1 (centres undefined) | 0.13
10 | 0.0017 | 1.6 | 941 | Cn1cncc1C(OCc1ccc(C#N)cc1C#CCCCCO)c1ccc(C#N)cc1 (centres undefined) | 0.0209
11 | 0.01 | > 10 | > 1000 | Cn1cncc1C(OCc1ccc(C#N)cc1C#Cc1ccc(-c2ccccc2)cc1)c1ccc(C#N)cc1 (centres undefined) | > 0.0001
12 | 0.0016 | 1.8 | 1120 | Cn1cncc1C(OCc1ccc(C#N)cc1/C=C/c1ccccn1)c1ccc(C#N)cc1 (centres undefined) | 0.0231
13 | 0.0009 | 0.16 | 178 | CCCCCCC#Cc1cc(C#N)ccc1COC(c1ccc(C#N)cc1)c1cncn1C (centres undefined) | > 0.0001
14 | 0.0013 | 9 | 6900 | Cn1cncc1C(OCc1ccc(C#N)cc1-c1ccc(C#N)cc1)c1ccc(C#N)cc1 (centres undefined) | < 0.0001
15 | – | – | – | Cn1cncc1C(OCc1ccc(C#N)cc1-c1ccccc1)c1ccc(C#N)cc1 (centres undefined) | 0.14
16 | 0.00095 | 1.8 | 1900 | Cn1cncc1C(OCc1ccc(C#N)cc1C#Cc1ccccc1)c1ccc(C#N)cc1 (centres undefined) | 0.0001
17 | 0.0011 | 0.15 | 136 | Cn1cncc1C(OCc1ccc(C#N)cc1-c1ccc(-c2ccccc2)cc1)c1ccc(C#N)cc1 (centres undefined) | < 0.0001
18 | 0.00095 | 0.31 | 326 | Cn1cncc1C(OCc1ccc(C#N)cc1CCC(C)(C)C)c1ccc(C#N)cc1 (centres undefined) | 0.00054
